From patent US6054435A, “6-O-substituted macrolides having antibacterial activity” (priority 1999, dated 2000)
≈ marks a conversion by molar mass, not a printed value.

What was measured:
Test in all cases: in vitro antibacterial activity (MIC), agar dilution
Format in all cases: cell-based
[1] = system: Candida albicans CCH 442; conditions: organism code TT; BHI agar, 35-37° C., 20 to 24 hours; unit assumed
Method in brief: (§1)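 Agar dilution in BHI agar, twelve successive compound dilutions. Inoculum 1:100, or 1:10 for slow-growing strains (e.g. Streptococcus), replicator-spotted. Read by eye; MIC = lowest concentration with no growth, slight haze or sparsely isolated colonies relative to growth control.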

[2] = system: Enterococcus faecium ATCC 8043; conditions: organism code II; BHI agar, 35-37° C., 20 to 24 hours; unit assumed
Method in brief: as §1

[3] = system: Escherichia coli DC-2; conditions: organism code SS; BHI agar, 35-37° C., 20 to 24 hours; unit assumed
Method in brief: as §1

[4] = system: Escherichia coli JUHL; conditions: organism code QQ; BHI agar, 35-37° C., 20 to 24 hours; unit assumed
Method in brief: as §1

[5] = system: Escherichia coli SS; conditions: organism code RR; BHI agar, 35-37° C., 20 to 24 hours; unit assumed
Method in brief: as §1

[6] = system: Haemophilis Influenzae DILL AMP R; conditions: organism code WW; BHI agar, 35-37° C., 20 to 24 hours; unit assumed
Method in brief: as §1

[7] = system: Micrococcus luteus ATCC 4698; conditions: organism code PP; BHI agar, 35-37° C., 20 to 24 hours; unit assumed
Method in brief: (§2)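 Antibacterial MIC determined by agar dilution in BHI agar with twelve successive concentrations; controls comprised compound-free plates and a same-class reference antibiotic. MIC: lowest concentration giving no growth, slight haze or sparsely isolated colonies.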

[8] = system: Micrococcus luteus ATCC 9341; conditions: organism code OO; BHI agar, 35-37° C., 20 to 24 hours; unit assumed
Method in brief: as §2

[9] = system: Mycobacterium smegmatis ATCC 114; conditions: organism code UU; BHI agar, 35-37° C., 20 to 24 hours; unit assumed
Method in brief: as §1

[10] = system: Nocardia Asteroides ATCC9970; conditions: organism code VV; BHI agar, 35-37° C., 20 to 24 hours; unit assumed
Method in brief: as §1

[11] = system: Staphylococcus aureus 1775; conditions: organism code GG; BHI agar, 35-37° C., 20 to 24 hours; unit assumed
Method in brief: as §1

[12] = system: Staphylococcus aureus A-5278; conditions: organism code CC; BHI agar, 35-37° C., 20 to 24 hours; unit assumed
Method in brief: as §1

[13] = system: Staphylococcus aureus A5177; conditions: organism code BB; BHI agar, 35-37° C., 20 to 24 hours; unit assumed
Method in brief: as §1

[14] = system: Staphylococcus aureus ATCC 6538P; conditions: organism code AA; BHI agar, 35-37° C., 20 to 24 hours; unit assumed
Method in brief: as §1

[15] = system: Staphylococcus aureus CMX 553; conditions: organism code FF; BHI agar, 35-37° C., 20 to 24 hours; unit assumed
Method in brief: as §1

[16] = system: Staphylococcus aureus CMX 642A; conditions: organism code DD; BHI agar, 35-37° C., 20 to 24 hours; unit assumed
Method in brief: as §1

[17] = system: Staphylococcus aureus NCTC10649M; conditions: organism code EE; BHI agar, 35-37° C., 20 to 24 hours; unit assumed
Method in brief: as §1

[18] = system: Staphylococcus epidermidis 3519; conditions: organism code HH; BHI agar, 35-37° C., 20 to 24 hours; unit assumed
Method in brief: as §1

[19] = system: Streptococcus Pneumonia 5649; conditions: organism code ZZA; BHI agar, 35-37° C., 20 to 24 hours; unit assumed
Method in brief: as §1

[20] = system: Streptococcus Pneumonia 5979; conditions: organism code ZZ; BHI agar, 35-37° C., 20 to 24 hours; unit assumed
Method in brief: as §1

[21] = system: Streptococcus Pneumonia ATCC6303; conditions: organism code XX; BHI agar, 35-37° C., 20 to 24 hours; unit assumed
Method in brief: as §1

[22] = system: Streptococcus Pneumonia GYR 1171; conditions: organism code YY; BHI agar, 35-37° C., 20 to 24 hours; unit assumed
Method in brief: as §1

[23] = system: Streptococcus agalactiae CMX 508; conditions: organism code KK; BHI agar, 35-37° C., 20 to 24 hours; unit assumed
Method in brief: as §1

[24] = system: Streptococcus bovis A-5169; conditions: organism code JJ; BHI agar, 35-37° C., 20 to 24 hours; unit assumed
Method in brief: as §1

[25] = system: Streptococcus pyogenes 930; conditions: organism code MM; BHI agar, 35-37° C., 20 to 24 hours; unit assumed
Method in brief: as §1

[26] = system: Streptococcus pyogenes EES61; conditions: organism code LL; BHI agar, 35-37° C., 20 to 24 hours; unit assumed
Method in brief: as §1

[27] = system: Streptococcus pyogenes PIU 2548; conditions: organism code NN; BHI agar, 35-37° C., 20 to 24 hours; unit assumed
Method in brief: as §1

CC[C@H]1OC(=O)[C@H](C)C(=O)[C@H](C)[C@@H](O[C@@H]2O[C@H](C)C[C@H](N(C)C)[C@H]2O)[C@](C)(OCC#Cc2ccc(-c3cccs3)s2)C[C@@H](C)C(=O)[C@H](C)[C@H]2NC(=O)O[C@@]21C [Example 25]
MIC [1]: 12.5 µg/mL (≈ 15.6 µM) | MIC [2]: 0.1 µg/mL (≈ 0.125 µM) | MIC [3]: > 100 µg/mL | MIC [4]: 100 µg/mL (≈ 125 µM) | MIC [5]: 0.2 µg/mL (≈ 0.25 µM) | MIC [6]: 2 µg/mL (≈ 2.5 µM) | MIC [7]: 0.2 µg/mL (≈ 0.25 µM) | MIC [8]: 0.05 µg/mL (≈ 0.0624 µM) | MIC [9]: 0.39 µg/mL (≈ 0.487 µM) | MIC [10]: 0.39 µg/mL (≈ 0.487 µM) | MIC [11]: 25 µg/mL (≈ 31.2 µM) | MIC [12]: 25 µg/mL (≈ 31.2 µM) | MIC [13]: 0.1 µg/mL (≈ 0.125 µM) | MIC [14]: 0.2 µg/mL (≈ 0.25 µM) | MIC [15]: 0.1 µg/mL (≈ 0.125 µM) | MIC [16]: 0.2 µg/mL (≈ 0.25 µM) | MIC [17]: 0.2 µg/mL (≈ 0.25 µM) | MIC [18]: 0.1 µg/mL (≈ 0.125 µM) | MIC [19]: 0.125 µg/mL (≈ 0.156 µM) | MIC [20]: 0.25 µg/mL (≈ 0.312 µM) | MIC [21]: ≤ 0.004 µg/mL | MIC [22]: ≤ 0.004 µg/mL | MIC [23]: 0.1 µg/mL (≈ 0.125 µM) | MIC [24]: 0.1 µg/mL (≈ 0.125 µM) | MIC [25]: 1.56 µg/mL (≈ 1.95 µM) | MIC [26]: 0.005 µg/mL (≈ 0.00624 µM) | MIC [27]: 0.2 µg/mL (≈ 0.25 µM)

CC[C@H]1OC(=O)[C@H](C)C(=O)[C@H](C)[C@@H](O[C@@H]2O[C@H](C)C[C@H](N(C)C)[C@H]2O)[C@](C)(OCC#Cc2ccc(-c3cccc(NC(C)=O)c3)s2)C[C@@H](C)C(=O)[C@H](C)[C@H]2NC(=O)O[C@@]21C [Example 20]
MIC [1]: > 100 µg/mL | MIC [2]: 0.05 µg/mL (≈ 0.0587 µM) | MIC [3]: 100 µg/mL (≈ 117 µM) | MIC [4]: > 100 µg/mL | MIC [5]: 0.2 µg/mL (≈ 0.235 µM) | MIC [6]: 4 µg/mL (≈ 4.69 µM) | MIC [7]: 0.1 µg/mL (≈ 0.117 µM) | MIC [8]: 0.02 µg/mL (≈ 0.0235 µM) | MIC [9]: 1.56 µg/mL (≈ 1.83 µM) | MIC [10]: 0.1 µg/mL (≈ 0.117 µM) | MIC [11]: > 100 µg/mL | MIC [12]: > 100 µg/mL | MIC [13]: 0.05 µg/mL (≈ 0.0587 µM) | MIC [14]: 0.1 µg/mL (≈ 0.117 µM) | MIC [15]: 0.1 µg/mL (≈ 0.117 µM) | MIC [16]: 0.1 µg/mL (≈ 0.117 µM) | MIC [17]: 0.1 µg/mL (≈ 0.117 µM) | MIC [18]: 0.1 µg/mL (≈ 0.117 µM) | MIC [19]: 0.25 µg/mL (≈ 0.293 µM) | MIC [20]: 0.5 µg/mL (≈ 0.587 µM) | MIC [21]: 0.15 µg/mL (≈ 0.176 µM) | MIC [22]: 0.015 µg/mL (≈ 0.0176 µM) | MIC [23]: ≤ 0.005 µg/mL | MIC [24]: ≤ 0.005 µg/mL | MIC [25]: 6.2 µg/mL (≈ 7.28 µM) | MIC [26]: 0.02 µg/mL (≈ 0.0235 µM) | MIC [27]: 0.2 µg/mL (≈ 0.235 µM)

CC[C@H]1OC(=O)[C@H](C)C(=O)[C@H](C)[C@@H](O[C@@H]2O[C@H](C)C[C@H](N(C)C)[C@H]2O)[C@](C)(OCC#Cc2ccc(-c3ccc(C=O)o3)cc2)C[C@@H](C)C(=O)[C@H](C)[C@H]2NC(=O)O[C@@]21C [Example 24]
MIC [1]: > 100 µg/mL | MIC [2]: 0.2 µg/mL (≈ 0.248 µM) | MIC [3]: > 100 µg/mL | MIC [4]: > 100 µg/mL | MIC [5]: 1.56 µg/mL (≈ 1.93 µM) | MIC [6]: 8 µg/mL (≈ 9.91 µM) | MIC [7]: 0.39 µg/mL (≈ 0.483 µM) | MIC [8]: 0.02 µg/mL (≈ 0.0248 µM) | MIC [9]: 3.1 µg/mL (≈ 3.84 µM) | MIC [10]: 0.1 µg/mL (≈ 0.124 µM) | MIC [11]: > 100 µg/mL | MIC [12]: > 100 µg/mL | MIC [13]: 0.39 µg/mL (≈ 0.483 µM) | MIC [14]: 0.39 µg/mL (≈ 0.483 µM) | MIC [15]: 0.39 µg/mL (≈ 0.483 µM) | MIC [16]: 0.39 µg/mL (≈ 0.483 µM) | MIC [17]: 0.39 µg/mL (≈ 0.483 µM) | MIC [18]: 0.39 µg/mL (≈ 0.483 µM) | MIC [19]: 0.25 µg/mL (≈ 0.31 µM) | MIC [20]: 2 µg/mL (≈ 2.48 µM) | MIC [21]: 0.03 µg/mL (≈ 0.0372 µM) | MIC [22]: 0.03 µg/mL (≈ 0.0372 µM) | MIC [23]: 0.1 µg/mL (≈ 0.124 µM) | MIC [24]: 0.1 µg/mL (≈ 0.124 µM) | MIC [25]: 25 µg/mL (≈ 31 µM) | MIC [26]: 0.1 µg/mL (≈ 0.124 µM) | MIC [27]: 0.78 µg/mL (≈ 0.967 µM)
